Measured values taken from publication PMC7271024, “N1-Benzofused Modification of Fluoroquinolones Reduces Activity Against Gram-Negative Bacteria” (ACS Omega, 2020).
≈ marks a conversion by molar mass, not a printed value.

What was measured:
A. baumannii AYE = experiment: MIC, microdilution broth method; format: cell-based, Acinetobacter baumannii; conditions: for MIC: Acinetobacter baumannii
Experimental: (§1) The antibacterial activities of the synthesized fluoroquinolones were evaluated against a panel of Gram-negative pathogens including K. pneumoniae (NCTC 13368, M6), Acinetobacter baumannii (AYE, ATCC 17978), Pseudomonas aeruginosa (PAO1, NCTC 13437), and Escherichia coli (NCTC 12923, LEC001). The ability of molecules to permeate the Gram-negative outer membrane was investigated by adding membrane permeabilizer polymyxin B nonapeptide (PMBN) at sub-inhibitory concentrations (Table 2). Phenylalanine–arginine β-naphthylamide (PAβN) was used to investigate efflux of compounds by resistance–nodulation–division (RND)-family efflux pumps (Table 3).
(§2) Minimal inhibitory concentrations (MICs) were determined using the microdilution broth method. Briefly, compounds were added to the first two columns of a 96-well plate and diluted two-fold down the plate in tryptic soy broth. Overnight cultures of bacteria were then adjusted to a concentration of 1 × 10^6 CFU/mL and added to each well for a final concentration of 5 × 10^5 CFU/mL.

E. coli LEC001 = experiment: MIC, microdilution broth method; format: cell-based, Escherichia coli; conditions: for MIC: Escherichia coli
Experimental: as §1, §2

P. aeruginosa PAO1 = experiment: MIC, microdilution broth method; format: cell-based, Pseudomonas aeruginosa; conditions: for potentiation of MIC by PMBN: MIC –PMBN vs +PMBN; for MIC: Pseudomonas aeruginosa, ciprofloxacin-sensitive strain (S)
E. coli NCTC 12923 = experiment: MIC, microdilution broth method; format: cell-based, Escherichia coli; conditions: for MIC: Escherichia coli, ciprofloxacin-sensitive strain (S)
A. baumannii ATCC 17978 = experiment: MIC, microdilution broth method; format: cell-based, Acinetobacter baumannii; conditions: for MIC: Acinetobacter baumannii, ciprofloxacin-sensitive strain (S); for potentiation of MIC by PMBN: MIC –PMBN vs +PMBN
P. aeruginosa NCTC 13437 = experiment: MIC, microdilution broth method; format: cell-based, Pseudomonas aeruginosa; conditions: Pseudomonas aeruginosa
Experimental: as §1, §2

K. pneumoniae M6 = experiment: MIC, microdilution broth method; format: cell-based, Klebsiella pneumoniae; conditions: for potentiation of MIC by PMBN: MIC –PMBN vs +PMBN; for MIC: Klebsiella pneumoniae, ciprofloxacin-sensitive strain (S)
K. pneumoniae NCTC 13368 = experiment: MIC, microdilution broth method; format: cell-based, Klebsiella pneumoniae; conditions: for MIC: Klebsiella pneumoniae, ciprofloxacin-resistant strain (R)
Experimental: as §1, §2

[1] = system: panel of Gram-negative pathogens; experiment: MIC panel, statements across strains; format: cell-based, K. pneumoniae, A. baumannii, P. aeruginosa, E. coli; conditions: versus ciprofloxacin
Experimental: as §1, §2

[2] = +PMBN (30 μg/mL), ciprofloxacin-resistant strain (R)
[3] = –PMBN, ciprofloxacin-resistant strain (R)
[4] = PAβN, text names A. baumannii only
[5] = LEC001, +PMBN (30 μg/mL), ciprofloxacin-resistant strain (R)
[6] = LEC001, –PMBN, ciprofloxacin-resistant strain (R)
[7] = NCTC13437, +PMBN (30 μg/mL), ciprofloxacin-resistant strain (R)
[8] = NCTC13437, –PMBN, ciprofloxacin-resistant strain (R)

**Q.** Which MIC (A. baumannii AYE; +PAβN (25 μg/mL), Table 3, strain R) does the source give for `O=C(O)c1cn(C2CC2)c2cc(N3CCNCC3)c(F)cc2c1=O` [Compound 6a, ciprofloxacin, reference compound] here?
**A.** > 32 µg/mL

**Q.** And the MIC (A. baumannii AYE; [2])?
**A.** > 32 µg/mL

**Q.** And the MIC (A. baumannii AYE; –PAβN, Table 3, strain R)?
**A.** 32 µg/mL (≈ 96.6 µM)

**Q.** What about the MIC (A. baumannii AYE; [3]) of the same molecule?
**A.** > 32 µg/mL

**Q.** What about the “effect of PAβN on MIC” value (A. baumannii AYE; [4]) of the same molecule?
**A.** Neither ciprofloxacin nor compound 6e showed any difference in MIC

**Q.** What about the MIC (E. coli LEC001; LEC001, +PAβN (25 μg/mL), Table 3, strain R) of the same molecule?
**A.** 32 µg/mL (≈ 96.6 µM)

**Q.** And the MIC (E. coli LEC001; [5])?
**A.** 32 µg/mL (≈ 96.6 µM)

**Q.** And the MIC (E. coli LEC001; LEC001, –PAβN, Table 3, strain R)?
**A.** 16 µg/mL (≈ 48.3 µM)

**Q.** And the MIC (E. coli LEC001; [6])?
**A.** 16 µg/mL (≈ 48.3 µM)

**Q.** What about the “effect of PAβN on MIC” value (E. coli LEC001; PAβN, text names E. coli only) of the same molecule?
**A.** No effect

**Q.** And the “potentiation of MIC by PMBN” value (P. aeruginosa PAO1)?
**A.** 4–16 fold

**Q.** And the MIC (E. coli NCTC 12923; NCTC12923, +PMBN (30 μg/mL))?
**A.** 0.03 to 0.06 µg/mL (≈ 0.0905 to 0.181 µM)

**Q.** What about the MIC (E. coli NCTC 12923; NCTC12923, –PMBN) of the same molecule?
**A.** ≤ 0.03 µg/mL

**Q.** And the “effect of PAβN on MIC” value (E. coli NCTC 12923; PAβN, text names E. coli only)?
**A.** No effect

**Q.** And the MIC (A. baumannii ATCC 17978; ATCC17978, +PMBN (30 μg/mL))?
**A.** 0.5 µg/mL (≈ 1.51 µM)

**Q.** And the MIC (A. baumannii ATCC 17978; ATCC17978, –PMBN)?
**A.** 0.5 µg/mL (≈ 1.51 µM)

**Q.** And the “potentiation of MIC by PMBN” value (A. baumannii ATCC 17978)?
**A.** 1–2 fold

**Q.** And the “effect of PAβN on MIC” value (A. baumannii ATCC 17978; [4])?
**A.** Neither ciprofloxacin nor compound 6e showed any difference in MIC

**Q.** What about the MIC (P. aeruginosa NCTC 13437; NCTC13437, +PAβN (25 μg/mL), Table 3, strain R) of the same molecule?
**A.** 16 µg/mL (≈ 48.3 µM)

**Q.** And the MIC (P. aeruginosa NCTC 13437; [7])?
**A.** 16 µg/mL (≈ 48.3 µM)

**Q.** And the MIC (P. aeruginosa NCTC 13437; NCTC13437, –PAβN, Table 3, strain R)?
**A.** 32 µg/mL (≈ 96.6 µM)

**Q.** What about the MIC (P. aeruginosa NCTC 13437; [8]) of the same molecule?
**A.** > 32 µg/mL

**Q.** What about the “potentiation of MIC by PMBN” value (K. pneumoniae M6) of the same molecule?
**A.** 1 fold

**Q.** What about the “effect of PAβN on MIC” value (K. pneumoniae M6; RND-family efflux inhibitor PAβN) of the same molecule?
**A.** not evident

**Q.** `CCn1cc(C(=O)O)c(=O)c2cc(F)c(N3CCNCC3)cc21` [Compound 6b, norfloxacin, reference compound] was tested. Which MIC (K. pneumoniae NCTC 13368; NCTC13368, +PMBN (30 μg/mL)) did it give?
**A.** 2 µg/mL (≈ 6.26 µM)

**Q.** What about the MIC (K. pneumoniae NCTC 13368; NCTC13368, –PMBN) of the same molecule?
**A.** 4 µg/mL (≈ 12.5 µM)

**Q.** What about the “potentiation of MIC by PMBN” value (K. pneumoniae NCTC 13368; MIC –PMBN vs +PMBN) of the same molecule?
**A.** 2 fold

**Q.** And the MIC (A. baumannii AYE; [2])?
**A.** > 32 µg/mL

**Q.** And the MIC (A. baumannii AYE; [3])?
**A.** > 32 µg/mL

**Q.** And the MIC (E. coli LEC001; [5])?
**A.** > 32 µg/mL

**Q.** And the MIC (E. coli LEC001; [6])?
**A.** > 32 µg/mL

**Q.** What about the “potentiation of MIC by PMBN” value (P. aeruginosa PAO1) of the same molecule?
**A.** 4–16 fold

**Q.** What about the MIC (P. aeruginosa PAO1; PAO1, +PMBN (30 μg/mL)) of the same molecule?
**A.** 0.5 µg/mL (≈ 1.57 µM)

**Q.** And the MIC (P. aeruginosa PAO1; PAO1, –PMBN)?
**A.** 2 to 4 µg/mL (≈ 6.26 to 12.5 µM)

**Q.** And the MIC (E. coli NCTC 12923; NCTC12923, +PMBN (30 μg/mL))?
**A.** 0.125 µg/mL (≈ 0.391 µM)

**Q.** What about the MIC (E. coli NCTC 12923; NCTC12923, –PMBN) of the same molecule?
**A.** 0.125 µg/mL (≈ 0.391 µM)

**Q.** What about the MIC (A. baumannii ATCC 17978; ATCC17978, +PMBN (30 μg/mL)) of the same molecule?
**A.** 4 µg/mL (≈ 12.5 µM)

**Q.** And the MIC (A. baumannii ATCC 17978; ATCC17978, –PMBN)?
**A.** 8 µg/mL (≈ 25.1 µM)

**Q.** What about the “potentiation of MIC by PMBN” value (A. baumannii ATCC 17978) of the same molecule?
**A.** 1–2 fold

**Q.** And the MIC (P. aeruginosa NCTC 13437; [7])?
**A.** 32 µg/mL (≈ 100 µM)

**Q.** And the MIC (P. aeruginosa NCTC 13437; [8])?
**A.** > 32 µg/mL

**Q.** What about the MIC (K. pneumoniae M6; M6, +PMBN (30 μg/mL)) of the same molecule?
**A.** 0.5 µg/mL (≈ 1.57 µM)

**Q.** And the MIC (K. pneumoniae M6; M6, –PMBN)?
**A.** 0.25 to 0.5 µg/mL (≈ 0.783 to 1.57 µM)

**Q.** And the “potentiation of MIC by PMBN” value (K. pneumoniae M6)?
**A.** 1 fold

**Q.** What does the source list for `O=C(O)c1cn(Cc2ccccc2)c2cc(N3CCNCC3)c(F)cc2c1=O` [Compound 6c]?
**A.** MIC (K. pneumoniae NCTC 13368; NCTC13368, +PMBN (30 μg/mL)): 4 µg/mL (≈ 10.5 µM); MIC (K. pneumoniae NCTC 13368; NCTC13368, –PMBN): 16 µg/mL (≈ 41.9 µM); MIC (A. baumannii AYE; [2]): > 32 µg/mL; MIC (A. baumannii AYE; [3]): > 32 µg/mL; antibacterial activity [1]: limited activity; MIC (E. coli LEC001; [5]): > 32 µg/mL; MIC (E. coli LEC001; [6]): > 32 µg/mL; MIC (P. aeruginosa PAO1; PAO1, +PMBN (30 μg/mL)): 0.5 µg/mL (≈ 1.31 µM); MIC (P. aeruginosa PAO1; PAO1, –PMBN): 8 µg/mL (≈ 21 µM); MIC (E. coli NCTC 12923; NCTC12923, +PMBN (30 μg/mL)): 0.5 µg/mL (≈ 1.31 µM); MIC (E. coli NCTC 12923; NCTC12923, –PMBN): 1 to 2 µg/mL (≈ 2.62 to 5.24 µM); MIC (A. baumannii ATCC 17978; ATCC17978, +PMBN (30 μg/mL)): 4 µg/mL (≈ 10.5 µM); MIC (A. baumannii ATCC 17978; ATCC17978, –PMBN): 4 to 8 µg/mL (≈ 10.5 to 21 µM); MIC (P. aeruginosa NCTC 13437; [7]): 32 µg/mL (≈ 83.9 µM); MIC (P. aeruginosa NCTC 13437; [8]): > 32 µg/mL; MIC (K. pneumoniae M6; M6, +PMBN (30 μg/mL)): 1 µg/mL (≈ 2.62 µM); MIC (K. pneumoniae M6; M6, –PMBN): 1 µg/mL (≈ 2.62 µM)
